Data set [1] concerns the target T1, full-length beta-Catenin (Uniprot ID P35222) (Homo sapiens, UniProt P35222).
T1 construct: 10 nM full-length beta-Catenin (Uniprot ID P35222)
T1 sequence (P35222 1-781): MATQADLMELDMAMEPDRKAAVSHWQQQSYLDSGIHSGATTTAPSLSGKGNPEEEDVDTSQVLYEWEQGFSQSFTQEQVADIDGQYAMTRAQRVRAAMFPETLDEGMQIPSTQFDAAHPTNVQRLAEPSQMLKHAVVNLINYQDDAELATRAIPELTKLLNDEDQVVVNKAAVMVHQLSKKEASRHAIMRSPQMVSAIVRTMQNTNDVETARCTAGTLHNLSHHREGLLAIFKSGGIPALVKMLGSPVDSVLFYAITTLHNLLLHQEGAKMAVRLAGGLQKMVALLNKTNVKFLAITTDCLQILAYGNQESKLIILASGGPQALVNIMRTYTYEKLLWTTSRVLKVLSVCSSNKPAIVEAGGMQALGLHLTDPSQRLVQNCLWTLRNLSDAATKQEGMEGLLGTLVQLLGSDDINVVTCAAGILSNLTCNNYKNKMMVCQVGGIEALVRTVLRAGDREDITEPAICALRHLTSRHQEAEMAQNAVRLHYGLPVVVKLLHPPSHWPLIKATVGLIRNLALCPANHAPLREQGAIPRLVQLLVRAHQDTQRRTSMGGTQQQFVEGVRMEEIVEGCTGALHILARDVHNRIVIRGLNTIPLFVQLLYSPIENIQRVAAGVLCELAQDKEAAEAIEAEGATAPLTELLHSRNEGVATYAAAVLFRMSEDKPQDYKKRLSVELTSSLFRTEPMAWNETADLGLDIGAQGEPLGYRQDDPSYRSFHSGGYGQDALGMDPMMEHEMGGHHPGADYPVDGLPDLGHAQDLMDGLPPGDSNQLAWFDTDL
Nature of the data set: Fluorescence polarization IC50 (beta-catenin / 5FAM-TCF4 10-53 competition). The data set is classed as binding. Particulars: fluorescence polarization.

Another data set in a line: Solubility in PBS. The data set is classed as physicochemical. An outline of the steps:
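HPLC quantitation of peptide remaining in the PBS supernatant after ultracentrifugation, referenced to a 50 μM solution in DMSO.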

The mark [2] stands for this setting: beta-catenin, read-out: FP EC50.

In brackets after ≈: the same amount, converted by molar mass. Where two headings read alike, the source gives them in different places.

Consider `CC(=O)N1CCC[C@]12CC=CCCCC1(CCCC=CCCCOC(=O)N3CC[C@@](C(=O)N[C@@H](Cc4ccsc4)C(=O)N[C@@H](Cc4csc5ccccc45)C(=O)N[C@@H](CCC(N)=O)C(N)=O)(C3)NC(=O)[C@H](CC(C)C)NC(=O)[C@H](Cc3ccccc3)NC(=O)[C@H](C)NC(=O)[C@H](C)NC(=O)[C@H]([C@@H](C)O)NC(=O)[C@H](CC(=O)O)NC1=O)NC(=O)[C@H](CC1CCCCC1)NC(=O)[C@H](CC(=O)O)NC2=O` (stereo partly drawn) [I-1174, Ac-PL3-Asp-Cha-B5-Asp-Thr-Ala-Ala-Phe-Leu-PyrS2-3Thi-BztA-Gln-NH2], for which the IC50 in data set [1] (read-out: beta-Catenin FP IC50) came to 43 nM. In addition, the Solubility (in general, how much of the substance goes into solution per volume) in “Solubility in PBS” came to 10 µM (≈ 19.3 µg/mL).

Regarding `CC(=O)N1CCC[C@]12CC=CCCCC1(CCCC=CCCCOC(=O)N3CC[C@@](C(=O)N[C@@H](Cc4ccccc4Cl)C(=O)N[C@@H](Cc4csc5ccccc45)C(=O)N[C@@H](CCC(N)=O)C(N)=O)(C3)NC(=O)[C@H](CC(C)C)NC(=O)[C@H](Cc3ccccc3)NC(=O)[C@H](C)NC(=O)[C@H](C)NC(=O)[C@H]([C@@H](C)O)NC(=O)[C@H](CC(=O)O)NC1=O)NC(=O)[C@H](CC1CCCCC1)NC(=O)[C@H](CC(=O)O)NC2=O` (stereo partly drawn) [I-1176, Ac-PL3-Asp-Cha-B5-Asp-Thr-Ala-Ala-Phe-Leu-PyrS2-2C1F-BztA-Gln-NH2], in data set [1] (read-out: beta-Catenin FP IC50), the IC50 is 169 nM. Also, in the data set “Solubility in PBS”, the “Solubility” value was determined as 10 µM (≈ 19.6 µg/mL).

In the case of `CC(=O)N1CCC[C@]12CC=CCCCC1(CCCC=CCCCOC(=O)N3CC[C@@](C(=O)N[C@@H](Cc4ccsc4)C(=O)N[C@@H](Cc4csc5ccccc45)C(=O)N[C@@H](CCC(N)=O)C(N)=O)(C3)NC(=O)[C@H](CC(C)C)NC(=O)[C@H](Cc3ccccc3)NC(=O)C(C)(C)NC(=O)C(C)(C)NC(=O)[C@H](CC(=O)O)NC(=O)[C@H](CC(=O)O)NC1=O)NC(=O)[C@H](CC(C)(C)C)NC(=O)[C@H](CC(=O)O)NC2=O` (stereo partly drawn) [I-1179, Ac-PL3-Asp-Npg-B5-Asp-Asp-Aib-Aib-Phe-Leu-PyrS2-3Thi-BztA-Gln-NH2], the IC50 in data set [1] (setting [2]) and in data set [1] (read-out: beta-Catenin FP IC50) was 346 nM each time. Besides, in “Solubility in PBS”, the “Solubility” value was 44 µM (≈ 85.6 µg/mL).

Regarding `CC(=O)N1CCC[C@]12CC=CCCCC1(CCCC=CCCCOC(=O)N3CC[C@@](C(=O)N[C@@H](Cc4ccsc4)C(=O)N[C@@H](Cc4csc5ccccc45)C(=O)N[C@@H](CCC(N)=O)C(N)=O)(C3)NC(=O)[C@H](CC(C)C)NC(=O)[C@H](Cc3ccccc3)NC(=O)C(C)(C)NC(=O)C(C)(C)NC(=O)[C@H](CC(=O)O)NC(=O)[C@H](CC(=O)O)NC1=O)NC(=O)[C@H](CC(C)(C)C)NC(=O)[C@H](CC(=O)O)NC2=O` (stereo partly drawn) [I-1180, Ac-PL3-Asp-Npg-B5-Asp-Asp-Aib-Aib-Phe-Leu-PyrS2-3Thi-BztA-Gln-NH2], the IC50 in data set [1] (setting [2]) and in data set [1] (read-out: beta-Catenin FP IC50) was 87 nM in each case. Besides, in the data set “Solubility in PBS”, the “Solubility” value was found to be 31 µM (≈ 60.3 µg/mL).

Take `CC(=O)N1CCC[C@H]1C(=O)N[C@@H](CC(=O)O)C(=O)N[C@@H](CC(C)(C)C)C(=O)N[C@]1(C)CCCC=CCCCOC(=O)N2CC[C@@](C(=O)N[C@@H](Cc3ccsc3)C(=O)N[C@@H](Cc3csc4ccccc34)C(=O)N[C@@H](CCC(N)=O)C(N)=O)(C2)NC(=O)[C@H](CC(N)=O)NC(=O)[C@H](Cc2ccccc2)NC(=O)[C@H](C)NC(=O)[C@H](C)NC(=O)[C@H](CC(=O)O)NC(=O)[C@H](CC(=O)O)NC1=O` [I-1182, Ac-Pro-Asp-Npg-R5-Asp-Asp-Ala-Ala-Phe-Asn-PyrS2-3Thi-BztA-Gln-NH2]: the IC50 in data set [1] (read-out: beta-Catenin FP IC50) was determined as 144 nM. In “Solubility in PBS” (Solubility (uM)), the concentration in solution (Solubility) came to 48 µM (≈ 88.9 µg/mL).

For `CC(=O)N1CCC[C@H]1C(=O)N[C@@H](CC(=O)O)C(=O)N[C@@H](CC(C)(C)C)C(=O)N[C@]1(C)CCCC=CCCCOC(=O)N2CC[C@@](C(=O)N[C@@H](Cc3ccccc3Cl)C(=O)N[C@@H](Cc3csc4ccccc34)C(=O)N[C@@H](CCC(N)=O)C(N)=O)(C2)NC(=O)[C@H](CC(N)=O)NC(=O)[C@H](Cc2ccccc2)NC(=O)[C@H](C)NC(=O)[C@H](C)NC(=O)[C@H](CC(=O)O)NC(=O)[C@H](CC(=O)O)NC1=O` [I-1183, Ac-Pro-Asp-Npg-R5-Asp-Asp-Ala-Ala-Phe-Asn-PyrS2-2C1F-BztA-Gln-NH2], the IC50 in data set [1] (read-out: beta-Catenin FP IC50) was 409 nM. Besides, in “Solubility in PBS”, the “Solubility” value was 50 µM (≈ 94 µg/mL).

As for `CC(=O)N1CCC[C@H]1C(=O)N[C@@H](CC(=O)O)C(=O)N[C@@H](CC1CCCCC1)C(=O)N[C@]1(C)CCCC=CCCCOC(=O)N2CC[C@@](C(=O)N[C@@H](Cc3ccccc3Cl)C(=O)N[C@@H](Cc3csc4ccccc34)C(=O)N[C@@H](CO)C(N)=O)(C2)NC(=O)[C@H]([C@@H](C)O)NC(=O)[C@H](Cc2ccccc2)NC(=O)[C@H](C)NC(=O)[C@H](C)NC(=O)[C@H](CC(=O)O)NC(=O)[C@H](CC(=O)O)NC1=O` [I-1184, Ac-Pro-Asp-Cha-R5-Asp-Asp-Ala-Ala-Phe-Thr-PyrS2-2C1F-BztA-Ser-NH2], in data set [1] (read-out: beta-Catenin FP IC50), the IC50 is 176 nM. Moreover, the Solubility in “Solubility in PBS” (Solubility (uM)) is 45 µM (≈ 83.4 µg/mL).

Turning to `CC(=O)N1CCC[C@]12CC=CCCCC1(CCCC=CCCCCCC[C@@](C)(C(=O)N[C@@H](Cc3ccccc3Cl)C(=O)N[C@@H](Cc3csc4ccccc34)C(=O)N[C@@H](CO)C(N)=O)NC(=O)[C@H](CC(C)C)NC(=O)[C@H](Cc3ccccc3)NC(=O)[C@H](C)NC(=O)[C@H](C)NC(=O)[C@H](CC(=O)O)NC(=O)[C@H](CC(=O)O)NC1=O)NC(=O)[C@H](CC(C)(C)C)NC(=O)[C@H](CC(=O)O)NC2=O` (stereo partly drawn) [I-1189, Ac-PL3-Asp-Npg-B5-Asp-Asp-Ala-Ala-Phe-Leu-S8-2C1F-BztA-Ser-NH2], the IC50 in data set [1] (read-out: beta-Catenin FP IC50) was determined as 94.5 nM. Also, in “Solubility in PBS”, the “Solubility” value stood at 10 µM (≈ 18.6 µg/mL).

For `CC(=O)N1CCC[C@]12CC=CCCCC1(CCCC=CCCCCCC[C@@](C)(C(=O)N[C@@H](Cc3ccsc3)C(=O)N[C@@H](Cc3csc4ccccc34)C(=O)N[C@@H](CO)C(N)=O)NC(=O)[C@H](CC(C)C)NC(=O)[C@H](Cc3ccccc3)NC(=O)[C@H](C)NC(=O)[C@H](C)NC(=O)[C@H](CC(=O)O)NC(=O)[C@H](CC(=O)O)NC1=O)NC(=O)[C@H](CC(C)(C)C)NC(=O)[C@H](CC(=O)O)NC2=O` (stereo partly drawn) [I-1190, Ac-PL3-Asp-Npg-B5-Asp-Asp-Ala-Ala-Phe-Leu-S8-3Thi-BztA-Ser-NH2], the IC50 in data set [1] (read-out: beta-Catenin FP IC50) is 58.5 nM. Further, the “Solubility” value in “Solubility in PBS” was 10 µM (≈ 18.3 µg/mL).

In the case of `CC(=O)N1CCC[C@]12CC=CCCCC1(CCCC=CCCCCCC[C@@](C)(C(=O)N[C@@H](Cc3ccsc3)C(=O)N[C@@H](Cc3csc4ccccc34)C(=O)N[C@H](C(N)=O)[C@@H](C)O)NC(=O)[C@H](CC(C)C)NC(=O)[C@H](Cc3ccccc3)NC(=O)[C@H](C)NC(=O)[C@H](C)NC(=O)[C@H](CC(=O)O)NC(=O)[C@H](CC(=O)O)NC1=O)NC(=O)[C@H](CC(C)(C)C)NC(=O)[C@H](CC(=O)O)NC2=O` (stereo partly drawn) [I-1191, Ac-PL3-Asp-Npg-B5-Asp-Asp-Ala-Ala-Phe-Leu-S8-3Thi-BztA-Thr-NH2], the IC50 in data set [1] (read-out: beta-Catenin FP IC50) amounted to 38.5 nM. In addition, in the data set “Solubility in PBS”, the “Solubility” value worked out at 10 µM (≈ 18.5 µg/mL).

As for `CC(=O)N1CCC[C@]12CC=CCCCC1(CCCC=CCCCCCC[C@@](C)(C(=O)N[C@@H](Cc3ccccc3Cl)C(=O)N[C@@H](Cc3csc4ccccc34)C(=O)N[C@@H](Cc3c[nH]nn3)C(N)=O)NC(=O)[C@H](CC(C)C)NC(=O)[C@H](Cc3ccccc3)NC(=O)[C@H](C)NC(=O)[C@H](C)NC(=O)[C@H](CC(=O)O)NC(=O)[C@H](CC(=O)O)NC1=O)NC(=O)[C@H](CC(C)(C)C)NC(=O)[C@H](CC(=O)O)NC2=O` (stereo partly drawn) [I-1192, Ac-PL3-Asp-Npg-B5-Asp-Asp-Ala-Ala-Phe-Leu-S8-2C1F-BztA-4TriA-NH2], in data set [1] (read-out: beta-Catenin FP IC50), the IC50 amounted to 81.5 nM. Moreover, in “Solubility in PBS”, the “Solubility” value was found to be 10 µM (≈ 19.1 µg/mL).

For the molecule `CC(=O)N1CCC[C@]12CC=CCCCC1(CCCC=CCCCCCC[C@@](C)(C(=O)N[C@@H](Cc3ccsc3)C(=O)N[C@@H](Cc3csc4ccccc34)C(=O)N[C@@H](Cc3c[nH]nn3)C(N)=O)NC(=O)[C@H](CC(C)C)NC(=O)[C@H](Cc3ccccc3)NC(=O)[C@H](C)NC(=O)[C@H](C)NC(=O)[C@H](CC(=O)O)NC(=O)[C@H](CC(=O)O)NC1=O)NC(=O)[C@H](CC(C)(C)C)NC(=O)[C@H](CC(=O)O)NC2=O` (stereo partly drawn) [I-1193, Ac-PL3-Asp-Npg-B5-Asp-Asp-Ala-Ala-Phe-Leu-S8-3Thi-BztA-4TriA-NH2], in data set [1] (read-out: beta-Catenin FP IC50), the IC50 is 78.5 nM. The “Solubility” value in the data set “Solubility in PBS” turned out to be 10 µM (≈ 18.8 µg/mL).

As to `CC(=O)N1CCC[C@]12CC=CCCCC1(CCCC=CCCCCCC[C@@](C)(C(=O)N[C@@H](Cc3ccccc3Cl)C(=O)N[C@@H](Cc3csc4ccccc34)C(=O)N[C@@H](Cc3c[nH]cn3)C(N)=O)NC(=O)[C@H](CC(C)C)NC(=O)[C@H](Cc3ccccc3)NC(=O)[C@H](C)NC(=O)[C@H](C)NC(=O)[C@H](CC(=O)O)NC(=O)[C@H](CC(=O)O)NC1=O)NC(=O)[C@H](CC(C)(C)C)NC(=O)[C@H](CC(=O)O)NC2=O` (stereo partly drawn) [I-1194, Ac-PL3-Asp-Npg-B5-Asp-Asp-Ala-Ala-Phe-Leu-S8-2C1F-BztA-His-NH2], the IC50 in data set [1] (read-out: beta-Catenin FP IC50) was found to be 66.5 nM. Also, the “Solubility” value in the data set “Solubility in PBS” was 10 µM (≈ 19.1 µg/mL).

Source of the values: patent publication US20240116985A1, “STAPLED PEPTIDES AND METHODS THEREOF” (priority 2020, published 2024).
